Assay results as given in patent US11644474B2, “Use of macimorelin in assessing growth hormone deficiency in children” (Æterna Zentaris GmbH, priority 2020, dated 2023).
“And” between values parts separate entries of the source, which are not always exact repeats. Equal entries are not always repeated. “Also recorded” adds a separate entry of the source. Where two headings read alike, the source gives them in different places.

Tests used:
Assay type in all cases: in vivo, human (paediatric subjects with suspected GHD)
[1] = Safety and tolerability of single oral macimorelin (adverse events, questionnaires, safety laboratory, ECG); conditions: all three dosing cohorts, 0.25-1 mg/kg single oral dose; for safety and tolerability: questionnaires, safety laboratory, ECG
Experimental: (§1) This was an open-label, group comparison, dose escalation trial to investigate the safety, tolerability, pharmacokinetics and pharmacodynamics of single-dose 0.25, 0.5, and 1 mg/kg oral macimorelin acetate in paediatric subjects with suspected GHD. The macimorelin GHST was administered between two standard GHST, conducted as per local clinical practice, with a recovery period of 7-28 days between tests. For the purposes of obtaining a detailed macimorelin PK profile in children, blood samples were collected pre-dose (±15 min) and 15, 30, 45, 60, 90, 120, and 360 minutes after macimorelin acetate intake.

[2] = tested on: GH secretion; assay: Macimorelin growth hormone stimulation test (GHST): serum GH after oral macimorelin (PD); conditions: for Peak GH after Macimorelin GHST: individual patients, serum
Experimental: as §1
(§2) The main features of Study P01 are summarized as follows: • Sequential cohorts of trial participants received macimorelin at ascending single oral doses: 0.25 mg/kg body weight in Cohort 1 (C1), 0.5 mg/kg body weight in Cohort 2 (C2), and 1 mg/kg body weight in Cohort 3 (C3). • For determination of macimorelin PK/PD: blood sampling at pre-dose, then 15, 30, 45, 60, 90, 120, and 360 minutes after the administration of macimorelin. • Two standard GHSTs (sGHSTs) had to be performed in a patient according to local practice. The related sGHST agents were considered as ‘background’ and not as IMPs. (Accepted test agents: insulin (insulin tolerance test or ITT), arginine, arginine/growth hormone releasing hormone (GHRH), clonidine, glucagon, L-dopa). Results
GH serum concentration: the analysis of serum samples for GH concentration was carried out at a central laboratory by a validated immunochemiluminometric assay (IDS-iSYS Human Growth Hormone (hGH), Immunodiagnostic Systems Ltd [UK]) (Manolopoulou et al., 2012). This assay is standardized to the recombinant growth hormone calibration standard WHO 98/574, and complies with recommendations on assay standardization as outlined by Clemmons (Clemmons, 2011).
The analytical laboratory applied for GH was: Central Laboratory Synevo Łódź, Krakusa Str. 28, 93-515 Łódź. Poland. The lower limit of quantification was <0.05 ng/mL.

[3] = Macimorelin plasma pharmacokinetics after single oral dose (Study AEZS-130-P01); conditions: for half-life: read-out: mean elimination half-life (converted); for Cmax: n=8 children; for AUC(0-t): read-out: mean AUC0-6 of macimorelin
Experimental: as §1, §2
Macimorelin plasma concentrations: the analysis of plasma samples for macimorelin concentration was carried out at a central laboratory, Prolytic GmbH, Germany, using a validated liquid chromatography-mass spectrometry (LCMS/MS) method with a detection limit of 0.2 ng/mL (Franz, 2005).
Preliminary pharmacokinetics (PK) were determined by: time of maximum measured concentration (tmax) and maximum concentration (Cmax) of macimorelin plasma concentrations in the sampling period.

[4] = human, C1, 0.25 mg/kg single oral dose, plasma
[5] = human, C2, 0.5 mg/kg single oral dose, plasma
[6] = human, C3, 1 mg/kg single oral dose, plasma

time at which maximum plasma concentrations for macimorelin were mainly observed ([3]; all cohorts, 0.25-1 mg/kg oral): 30 to 45 min | half-life ([3]; human, plasma, C1, 0.25 mg/kg single oral dose): 1.22 h | half-life ([3]; human, plasma, C2, 0.5 mg/kg single oral dose): 1.61 h | half-life ([3]; human, plasma, C3, 1 mg/kg single oral dose): 1.71 h | Tmax ([3]; human, plasma, all three groups C1-C3, 0.25-1 mg/kg oral): 0.5 to 0.75 h | Cmax [3, 4]: 3.46 ng/mL | AUC(0-t) [3, 4]: 6.69 ng·h/mL | Cmax [3, 5]: 8.13 ng/mL | AUC(0-t) [3, 5]: 18 ng·h/mL | Cmax [3, 6]: 12.9 ng/mL | AUC(0-t) [3, 6]: 30.9 ng·h/mL
SMILES: CC(C)(N)C(=O)N[C@H](Cc1c[nH]c2ccccc12)C(=O)N[C@H](Cc1c[nH]c2ccccc12)NC=O [macimorelin]
adverse events related to macimorelin ([1]; 24 children): none were considered related to the macimorelin test; also recorded: No adverse event was reported in relation to macimorelin | safety and tolerability [1]: excellent safety and tolerability | safety and tolerability ([1]; listed as Macimorelin acetate): safe and well tolerated in all dosing cohorts | time within which peak GH levels were observed ([2]; C1, 0.25 mg/kg oral): 0.5 to 1 h | mean Tmax of peak GH ([2]; C1, 0.25 mg/kg oral (SD 11.3)): 0.875 h | Peak GH after Macimorelin GHST ([2]; C1, 0.25 mg/kg oral): 8.61 ng/mL and 0.51 ng/mL and 21.73 ng/mL and 5.22 ng/mL and 10.03 ng/mL and 14.07 ng/mL and 9.78 ng/mL and 8.38 ng/mL | time within which peak GH levels were observed ([2]; C2, 0.5 mg/kg oral): 0.25 to 1 h | mean Tmax of peak GH ([2]; C2, 0.5 mg/kg oral (SD 13.9)): 0.625 h | Peak GH after Macimorelin GHST ([2]; C2, 0.5 mg/kg oral): 5.06 ng/mL and 20.73 ng/mL and 7.41 ng/mL and 10.43 ng/mL and 21.36 ng/mL and 16.41 ng/mL and 9.67 ng/mL and 27.42 ng/mL | time within which peak GH levels were observed ([2]; C3, 1 mg/kg oral): 0.5 to 0.75 h | mean Tmax of peak GH ([2]; C3, 1 mg/kg oral (SD 8.0)): 0.625 h | stimulation of GH secretion ([2]; C3, 1 mg/kg oral, 8 patients): stimulated evidently in all 8 patients; also recorded: evident stimulation of GH secretion in all 8 patients | Peak GH after Macimorelin GHST ([2]; C3, 1 mg/kg oral): 17.13 ng/mL and 14.46 ng/mL and 59.73 ng/mL and 49.16 ng/mL and 25.07 ng/mL and 14.63 ng/mL and 11.35 ng/mL and 44.73 ng/mL | mean Tmax of GH release ([2]; all cohorts C1-C3): 0.5 to 1 h | time of maximum GH release after macimorelin administration ([2]; all cohorts C1-C3): 0.25 to 2 h | time at which peak GH levels were mainly observed following macimorelin intake ([2]; all three cohorts): 30 to 60 min | change of macimorelin AUC with dose ([3]; 0.25, 0.5, 1 mg/kg oral): increased with dose; also recorded: dose-dependent increase; also recorded: increases with the macimorelin dose | change of macimorelin Cmax with dose ([3]; 0.25, 0.5, 1 mg/kg oral): dose-dependent increase; also recorded: dose-proportional increase | change of macimorelin plasma concentrations with dose ([3]; 0.25, 0.5, 1 mg/kg oral, FIG. 1): dose-dependent increase with high inter-individual variability
